Test results published in patent US12643879B2, “Functionalized heterocyclic compounds as modulators of stimulator of interferon genes (STING)” (RYVU THERAPEUTICS S.A., priority 2019, dated 2026).

What was measured:
human STING = human STING (Homo sapiens, UniProt Q86WV6); assay: Fluorescence Thermal Shift assay (binding to STING); conditions: STING 0.1 mg/mL, SyproOrange, 25 to 99° C.
In short: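 Human STING (0.1 mg/mL final) preincubated 20 min with compounds in 50 mM Hepes, 150 mM NaCl, pH 7.5, then SyproOrange added. Thermal unfolding 25–99 °C at 0.033 °C/s continuous ramp monitored by fluorescence.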

[1] = tested on: interferon regulatory factor (IRF) pathway in THP-1 dual cells; assay: THP-1 Dual reporter assay, IRF pathway (luciferase); type: cell-based; conditions: Homo sapiens, THP1-Dual; 18 h stimulation, luminescence; read-out: THP1 Dual EC50 (μM) IRF
In short: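 THP-1 dual reporter cells, 18 h STING agonist stimulation. IRF: medium + luciferase reagent, luminescence read immediately (ISG54/5×ISRE reporter).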

[2] = tested on: NF-κB pathway in THP-1 dual cells; assay: THP-1 Dual reporter assay, NF-κB pathway (SEAP); type: cell-based; conditions: Homo sapiens, THP1-Dual; 18 h stimulation, absorbance at 630 or 655 nm; read-out: THP1 Dual EC50 (μM) NFkB
In short: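 IRF output: ISRE-ISG54 luciferase in collected medium, luminescence measured immediately on reagent addition. NF-κB output: SEAP under NF-κB-element IFN-β promoter, detection medium 1 or 2 h at 37° C, absorbance 630 or 655 nm. Cells were stimulated with STING agonist for 18 h beforehand.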

[3] = tested on: CT26 murine colon carcinoma allografts; assay: In vivo anti-tumor efficacy in CT26 allografts; parameters: species or system female Balb/C mice; conditions: intravenously, once every fifth day on three occasions
Procedure: The efficacy of Example 4, Example 31 and Example 57 was evaluated in established CT26 murine colon carcinoma allografts in female Balb/C mice. Compounds were formulated in 5% ethanol with 10% Captisol in PBS and administered intravenously, once every fifth day on three occasions. The solution was prepared fresh prior to each administration. […] By the end of the study there was one complete response among animals treated at 10 mg/kg of Example 4. […] By the end of the study, on day 43, there was one complete response recorded in group treated at 20 mg/kg of Example 57.

human STING, sequence (Q86WV6 whole entry H232R): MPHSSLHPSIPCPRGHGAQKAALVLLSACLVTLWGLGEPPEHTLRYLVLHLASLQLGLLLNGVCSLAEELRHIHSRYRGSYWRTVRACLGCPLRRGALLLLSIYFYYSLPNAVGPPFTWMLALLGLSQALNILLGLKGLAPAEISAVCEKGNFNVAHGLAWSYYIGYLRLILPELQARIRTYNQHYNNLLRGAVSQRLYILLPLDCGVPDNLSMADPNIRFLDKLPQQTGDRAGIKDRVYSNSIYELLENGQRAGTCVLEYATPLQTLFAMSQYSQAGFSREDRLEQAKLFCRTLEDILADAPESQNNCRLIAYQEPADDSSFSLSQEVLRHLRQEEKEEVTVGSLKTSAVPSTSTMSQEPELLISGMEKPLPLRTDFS

Row | SMILES | hSTING FTS binding assay (ΔT C. °) (human STING) | EC50 [1] [µM] | EC50 [2] [µM] | anti-tumor efficacy (tumor growth vs control group) ([3]; 7 mg/kg) | anti-tumor efficacy (tumor growth vs control group) ([3]; 10 mg/kg) | complete responses by the end of the study ([3]; 10 mg/kg) | response of CT26 tumors to treatment [3] | anti-tumor efficacy (tumor growth vs control group) ([3]; 15 mg/kg) | anti-tumor efficacy (tumor growth vs control group) ([3]; 30 mg/kg) | complete responses by the end of the study ([3]; 30 mg/kg, day 43) | anti-tumor efficacy (tumor growth vs control group) ([3]; 5 mg/kg) | anti-tumor efficacy (tumor growth vs control group) ([3]; 20 mg/kg) | complete responses by the end of the study ([3]; 20 mg/kg, day 43)
1 | COc1cc(CN(Cc2cn(C3CC3)c3cc(F)c(F)cc3c2=O)[C@H]2CCCN(c3ccc(N)nc3)C2)ccn1.Cl [Example 4, 3-({[(3S)-1-(6-Aminopyridin-3-yl)piperidin-3-yl][(2-methoxypyridin-4-yl)methyl]amino}methyl)-1-cyclopropyl-6,7-difluoro-1,4-dihydroquinolin-4-one hydrochloride] | +++ (+++=ΔTm ≥20° C.) | < 1 | < 1 | efficacious | efficacious | one | responded prominently | – | – | – | – | – | –
2 | Cc1ccc(N2CCC[C@H](N(Cc3ccnc(C)c3)Cc3cn(C4CC4)c4cc(N5CCC[C@H](O)C5)c(F)cc4c3=O)C2)cn1.Cl [Example 31, 1-cyclopropyl-6-fluoro-7-[(3S)-3-hydroxypiperidin-1-yl]-3-({[(3S)-1-(6-methylpyridin-3-yl)piperidin-3-yl][(2-methylpyridin-4-yl)methyl]amino}methyl)-1,4-dihydroquinolin-4-one hydrochloride] | +++ (+++=ΔTm ≥20° C.) | < 1 | < 1 | slight tumor growth delay | – | – | responded prominently | prominently efficacious | prominently efficacious | two | – | – | –
3 | Cc1ccc(N2CCC[C@H](N(Cc3ccnc(C)c3)Cc3cn(C4CC4)c4cc(N5CC[C@H](N)C(F)(F)C5)c(F)cc4c3=O)C2)cn1.Cl (single isomer, unassigned) [Example 57] | +++ (+++=ΔTm ≥20° C.) | – | – | – | moderately efficacious | – | responded prominently | – | – | – | minimal tumor growth delay | full efficacious | one
4 | Cc1ccc(N2CCC[C@H](N(Cc3ccnc(C)c3)Cc3cn(C4CC4)c4cc(N5CCC(C(=O)O)CC5)c(F)cc4c3=O)C2)cn1 [Example 67, 1-[1-cyclopropyl-6-fluoro-3-({[(3S)-1-(6-methylpyridin-3-yl)piperidin-3-yl][(2-methylpyridin-4-yl)methyl]amino}methyl)-4-oxo-1,4-dihydroquinolin-7-yl]piperidine-4-carboxylic acid] | +++ (+++=ΔTm ≥20° C.) | 1 to 10 | 1 to 10 | – | – | – | – | – | – | – | – | – | –
5 | Cc1ccc(N2CCC[C@H](N(Cc3ccnc(C)c3)Cc3cn(C4CC4)c4cc(NCCN)c(F)cc4c3=O)C2)cn1 [Example 8, 7-[(2-Aminoethyl)amino]-1-cyclopropyl-6-fluoro-3-({[(3S)-1-(6-methylpyridin-3-yl)piperidin-3-yl][(2-methylpyridin-4-yl)methyl]amino}methyl)-1,4-dihydroquinolin-4-one] | +++ (+++=ΔTm ≥20° C.) | < 1 | < 1 | – | – | – | – | – | – | – | – | – | –
